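In this assay, cells in 96-well plates receive the compound at five concentrations for 48 hours. Endpoints are linearly interpolated between the surrounding concentrations. GI50: concentration for 50% inhibition of growth. TGI marks complete inhibition of growth.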
Columns and labels:
Assay in all cases: NCI-60 cell line screen, 48 h
[1] = tested on: 786-0 renal
[2] = tested on: A498 renal
[3] = tested on: A549 NSCLC
[4] = tested on: ACHN renal
[5] = tested on: BT-549 breast
[6] = tested on: CAKI-1 renal
[7] = tested on: CCRF-CEM leukemia
[8] = tested on: COLO 205 colon
[9] = tested on: DU-145 prostate
[10] = tested on: EKVX NSCLC
[11] = tested on: HCT-116 colon
[12] = tested on: HCT-15 colon
[13] = tested on: HL-60(TB) leukemia
[14] = tested on: HOP-62 NSCLC
[15] = tested on: HOP-92 NSCLC
[16] = tested on: HS 578T breast
[17] = tested on: HT29 colon
[18] = tested on: IGROV1 ovarian
[19] = tested on: KM12 colon
[20] = tested on: LOX IMVI melanoma
[21] = tested on: M14 melanoma
[22] = tested on: MALME-3M melanoma
[23] = tested on: MCF7 breast
[24] = tested on: MDA-MB-435
[25] = tested on: MOLT-4 leukemia
[26] = tested on: NCI-H226 lung
[27] = tested on: NCI-H23 lung
[28] = tested on: NCI-H460 lung
[29] = tested on: NCI/ADR-RES ovarian
[30] = tested on: OVCAR-3 ovarian
[31] = tested on: OVCAR-4 ovarian
[32] = tested on: OVCAR-5 ovarian
[33] = tested on: OVCAR-8 ovarian
[34] = tested on: PC-3 prostate
[35] = tested on: RPMI-8226 leukemia
[36] = tested on: RXF 393 renal
[37] = tested on: SF-268 CNS
[38] = tested on: SF-295 CNS
[39] = tested on: SF-539 CNS
[40] = tested on: SK-MEL-2 melanoma
[41] = tested on: SK-MEL-28 melanoma
[42] = tested on: SK-MEL-5 melanoma
[43] = tested on: SK-OV-3 ovarian
[44] = tested on: SNB-19 CNS
[45] = tested on: SNB-75 CNS
[46] = tested on: SW-620 colon
[47] = tested on: T-47D breast
[48] = tested on: TK-10 renal
[49] = tested on: U251 CNS
[50] = tested on: UACC-257 melanoma
[51] = tested on: UO-31 renal
[52] = tested on: HCC-2998 colon
[53] = tested on: K-562 leukemia
[54] = tested on: MDA-MB-231 breast
[55] = tested on: NCI-H522 lung
[56] = tested on: SN12C renal
[57] = tested on: UACC-62 melanoma

Compound: CCCCCC(=C/c1ccccc1)/C=N/N=C(N)N
- GI50 [1]: 1.6 µM
- TGI [1]: 3 µM
- GI50 [2]: 0.621 µM
- TGI [2]: 1.99 µM
- GI50 [3]: 1.73 µM
- TGI [3]: 3.23 µM
- GI50 [4]: 1.69 µM
- TGI [4]: 3.28 µM
- GI50 [5]: 1.65 µM
- TGI [5]: 3.02 µM
- GI50 [6]: 5.16 µM
- TGI [6]: 21.2 µM
- GI50 [7]: 2 µM
- TGI [7]: 5.04 µM
- GI50 [8]: 1.65 µM
- TGI [8]: 3.17 µM
- GI50 [9]: 1.57 µM
- TGI [9]: 2.94 µM
- GI50 [10]: 4.03 µM
- TGI [10]: 19.1 µM
- GI50 [11]: 1.32 µM
- TGI [11]: 2.72 µM
- GI50 [12]: 1.99 µM
- TGI [12]: 5 µM
- GI50 [13]: 0.451 µM
- TGI [13]: 1.96 µM
- GI50 [14]: 1.63 µM
- TGI [14]: 3.31 µM
- GI50 [15]: 1.45 µM
- TGI [15]: 3.19 µM
- GI50 [16]: 1.8 µM
- TGI [16]: 4.18 µM
- GI50 [17]: 1.58 µM
- TGI [17]: 3.27 µM
- GI50 [18]: 1.32 µM
- TGI [18]: 2.72 µM
- GI50 [19]: 1.43 µM
- TGI [19]: 2.82 µM
- GI50 [20]: 1.44 µM
- TGI [20]: 3.02 µM
- GI50 [21]: 1.56 µM
- TGI [21]: 3.09 µM
- GI50 [22]: 1.51 µM
- TGI [22]: 3.12 µM
- GI50 [23]: 1.34 µM
- TGI [23]: 2.74 µM
- GI50 [24]: 1.7 µM
- TGI [24]: 3.28 µM
- GI50 [25]: 1.53 µM
- TGI [25]: 3.51 µM
- GI50 [26]: 2.2 µM
- TGI [26]: 5.51 µM
- GI50 [27]: 1.47 µM
- TGI [27]: 3.12 µM
- GI50 [28]: 1.57 µM
- TGI [28]: 3.13 µM
- GI50 [29]: 1.53 µM
- TGI [29]: 3.3 µM
- GI50 [30]: 1.27 µM
- TGI [30]: 2.56 µM
- GI50 [31]: 1.46 µM
- TGI [31]: 2.84 µM
- GI50 [32]: 1.74 µM
- TGI [32]: 3.69 µM
- GI50 [33]: 1.74 µM
- TGI [33]: 3.54 µM
- GI50 [34]: 1.4 µM
- TGI [34]: 2.92 µM
- GI50 [35]: 1.42 µM
- TGI [35]: 3.55 µM
- GI50 [36]: 1.72 µM
- TGI [36]: 3.15 µM
- GI50 [37]: 1.45 µM
- TGI [37]: 2.99 µM
- GI50 [38]: 1.67 µM
- TGI [38]: 3.49 µM
- GI50 [39]: 1.95 µM
- TGI [39]: 3.71 µM
- GI50 [40]: 1.7 µM
- TGI [40]: 3.2 µM
- GI50 [41]: 1.65 µM
- TGI [41]: 3.06 µM
- GI50 [42]: 1.66 µM
- TGI [42]: 3.04 µM
- GI50 [43]: 2.95 µM
- TGI [43]: 10.8 µM
- GI50 [44]: 1.85 µM
- TGI [44]: 4.15 µM
- GI50 [45]: 1.35 µM
- TGI [45]: 2.7 µM
- GI50 [46]: 1.52 µM
- TGI [46]: 3.16 µM
- GI50 [47]: 1.65 µM
- TGI [47]: 3.62 µM
- GI50 [48]: 1.75 µM
- TGI [48]: 3.32 µM
- GI50 [49]: 1.7 µM
- TGI [49]: 3.18 µM
- GI50 [50]: 1.45 µM
- TGI [50]: 2.83 µM
- GI50 [51]: 1.19 µM
- TGI [51]: 2.5 µM

Compound: COc1cccc(NC(=O)c2ccc(NC3=C(Cl)C(=O)N(Cc4ccccc4)C3=O)cc2)c1
- GI50 [1]: 18.3 µM
- TGI [1]: 33.9 µM
- GI50 [2]: 22.2 µM
- TGI [2]: 48.9 µM
- GI50 [3]: 13.6 µM
- TGI [3]: 38 µM
- GI50 [4]: 6.22 µM
- TGI [4]: 19 µM
- GI50 [5]: 13.8 µM
- TGI [5]: 33.8 µM
- GI50 [6]: 15.3 µM
- TGI [6]: 30.9 µM
- GI50 [7]: 1.67 µM
- TGI [7]: 4.35 µM
- GI50 [8]: 23.7 µM
- TGI [8]: > 100 µM
- GI50 [9]: 19 µM
- TGI [9]: 38.6 µM
- GI50 [10]: 24.4 µM
- TGI [10]: 49.4 µM
- GI50 [52]: 17 µM
- TGI [52]: 30.6 µM
- GI50 [11]: 15 µM
- TGI [11]: 28.3 µM
- GI50 [12]: 1.4 µM
- TGI [12]: 2.71 µM
- GI50 [13]: 11.9 µM
- TGI [13]: 29 µM
- GI50 [14]: 19.1 µM
- TGI [14]: 34.8 µM
- GI50 [16]: 11.1 µM
- TGI [16]: 30.9 µM
- GI50 [17]: 5.74 µM
- TGI [17]: 17.4 µM
- GI50 [18]: 13.3 µM
- TGI [18]: 28.7 µM
- GI50 [53]: 18.9 µM
- TGI [53]: 47.2 µM
- GI50 [19]: 16.9 µM
- TGI [19]: 40.3 µM
- GI50 [20]: 2.71 µM
- TGI [20]: 9.11 µM
- GI50 [21]: 17.3 µM
- TGI [21]: 31.7 µM
- GI50 [22]: 16 µM
- TGI [22]: 42.1 µM
- GI50 [23]: 3.9 µM
- TGI [23]: 17.8 µM
- GI50 [54]: 16.7 µM
- TGI [54]: 36.1 µM
- GI50 [24]: 10.6 µM
- TGI [24]: 41.4 µM
- GI50 [25]: 2.82 µM
- TGI [25]: 16.2 µM
- GI50 [26]: 14.8 µM
- TGI [26]: 28.8 µM
- GI50 [27]: 15.3 µM
- TGI [27]: 28.6 µM
- GI50 [28]: 12.3 µM
- TGI [28]: 30.4 µM
- GI50 [55]: 2.49 µM
- TGI [55]: 8.87 µM
- GI50 [29]: 16.3 µM
- TGI [29]: 29.8 µM
- GI50 [30]: 3.29 µM
- TGI [30]: 15.3 µM
- GI50 [31]: 22 µM
- TGI [31]: > 100 µM
- GI50 [32]: 27.5 µM
- TGI [32]: 65.7 µM
- GI50 [33]: 4.17 µM
- TGI [33]: 16.5 µM
- GI50 [34]: 13.1 µM
- TGI [34]: 28.5 µM
- GI50 [36]: 2.09 µM
- TGI [36]: 14.9 µM
- GI50 [37]: 17.5 µM
- TGI [37]: 37.4 µM
- GI50 [38]: 10.5 µM
- TGI [38]: 28.8 µM
- GI50 [39]: 17.3 µM
- TGI [39]: 31 µM
- GI50 [41]: 11.5 µM
- TGI [41]: 28 µM
- GI50 [42]: 14 µM
- TGI [42]: 26.9 µM
- GI50 [43]: 30.5 µM
- TGI [43]: 85.4 µM
- GI50 [56]: 17.6 µM
- TGI [56]: 37.1 µM
- GI50 [44]: 19.1 µM
- TGI [44]: 60.1 µM
- GI50 [46]: 10.3 µM
- TGI [46]: 25.7 µM
- GI50 [47]: 21.5 µM
- TGI [47]: > 100 µM
- GI50 [48]: 20.3 µM
- TGI [48]: 55 µM
- GI50 [49]: 7.12 µM
- TGI [49]: 19.9 µM
- GI50 [50]: 16.2 µM
- TGI [50]: 38.5 µM
- GI50 [57]: 15.4 µM
- TGI [57]: 28.8 µM
- GI50 [51]: 18.2 µM
- TGI [51]: 62.6 µM

Source: PubChem BioAssay (NCI)
